How the values were obtained:
Format in all cases: in vivo
[1] = tested on: oval-leafed pondweed; assay: Test Example 1: weedkilling efficacy, preemergent weed treatment in the submerged state; C: oval-leafed pondweed
Outline: (§1)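 Submerged pre-emergence treatment, water-surface application of compound emulsion at g/ha dosages; 4 cm flooded alluvial soil, weeds sown and 2.5-leaf rice transplanted same day. Rated after 3 weeks, greenhouse.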

[2] = tested on: Indian mallow; assay: Test Example 3: weedkilling efficacy through soil treatment; K: Indian mallow; conditions: soil treatment
Outline: (§2)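 Crop and weed responses were judged three weeks after a uniform surface spray of the water-diluted emulsion at the given g/ha rate. Seeds sat beneath about 1.5 cm of sterilized diluvial soil, and boxes stood in a greenhouse at 25 to 30° C.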

[3] = tested on: chickweed; assay: Test Example 3: weedkilling efficacy through soil treatment; N: chickweed; conditions: soil treatment
Outline: as §2

[4] = tested on: rapeseed; assay: Test Example 3: soil treatment, effect on crop; g: rapeseed; conditions: soil treatment
Outline: as §2

[5] = tested on: barnyard grass; assay: Test Example 1: weedkilling efficacy, preemergent weed treatment in the submerged state; A: barnyard grass
Outline: as §1

[6] = tested on: wheat; assay: Test Example 3: soil treatment, effect on crop; e: wheat; conditions: soil treatment
Outline: as §2

[7] = tested on: corn; assay: Test Example 3: soil treatment, effect on crop; c: corn; conditions: soil treatment
Outline: as §2

[8] = tested on: barnyard grass; assay: Test Example 3: weedkilling efficacy through soil treatment; F: barnyard grass; conditions: soil treatment
Outline: as §2

[9] = tested on: Italian ryegrass; assay: Test Example 3: weedkilling efficacy through soil treatment; I: Italian ryegrass; conditions: soil treatment
Outline: as §2

[10] = tested on: wild oat; assay: Test Example 3: weedkilling efficacy through soil treatment; G: wild oat; conditions: soil treatment
Outline: as §2

[11] = tested on: barnyard grass; assay: Test Example 2: weedkilling efficacy, growth period weed treatment in the submerged state; A: barnyard grass
Outline: (§3)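 Seedlings at 1-2 leaves in 4 cm-deep submerged alluvial soil received emulsion formulations on the water surface, dosed per hectare; effects were judged 3 weeks on.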

[12] = tested on: catchweed; assay: Test Example 3: weedkilling efficacy through soil treatment; O: catchweed; conditions: soil treatment
Outline: as §2

[13] = tested on: black-grass; assay: Test Example 3: weedkilling efficacy through soil treatment; H: black-grass; conditions: soil treatment
Outline: as §2

[14] = tested on: soybean; assay: Test Example 3: soil treatment, effect on crop; d: soybean; conditions: soil treatment
Outline: as §2

[15] = tested on: transplanted rice; assay: Test Example 1: preemergent weed treatment in the submerged state, effect on crop; a: transplanted rice
Outline: as §1

[16] = tested on: directly sown rice; assay: Test Example 3: soil treatment, effect on crop; b: directly sown rice; conditions: soil treatment
Outline: as §2

[17] = tested on: bulrush; assay: Test Example 1: weedkilling efficacy, preemergent weed treatment in the submerged state; B: bulrush
Outline: as §1

[18] = tested on: beet; assay: Test Example 3: soil treatment, effect on crop; f: beet; conditions: soil treatment
Outline: as §2

[19] = tested on: oval-leafed pondweed; assay: Test Example 2: weedkilling efficacy, growth period weed treatment in the submerged state; C: oval-leafed pondweed
Outline: as §3

[20] = tested on: crabgrass; assay: Test Example 3: weedkilling efficacy through soil treatment; D: crabgrass; conditions: soil treatment
Outline: as §2

[21] = tested on: birds-eye speedwell; assay: Test Example 3: weedkilling efficacy through soil treatment; p: birds-eye speedwell; conditions: soil treatment
Outline: as §2

[22] = tested on: common wind-grass; assay: Test Example 3: weedkilling efficacy through soil treatment; J: common wind-grass; conditions: soil treatment
Outline: as §2

[23] = tested on: bulrush; assay: Test Example 2: weedkilling efficacy, growth period weed treatment in the submerged state; B: bulrush
Outline: as §3

[24] = tested on: green foxtail; assay: Test Example 3: weedkilling efficacy through soil treatment; E: green foxtail; conditions: soil treatment
Outline: as §2

[25] = tested on: redroot pigweed; assay: Test Example 3: weedkilling efficacy through soil treatment; L: redroot pigweed; conditions: soil treatment
Outline: as §2

[26] = tested on: fig-leafed goosefoot; assay: Test Example 3: weedkilling efficacy through soil treatment; M: fig-leafed goosefoot; conditions: soil treatment, treatment dosage 320 g/ha
Outline: as §2

SMILES: CC(C)(C(=O)Nc1cc(F)cc(F)n1)N1COCN(c2ccccc2)C1=O [A-2-13]
- C: oval-leafed pondweed, weed kill grade ([1]; treatment dosage 252 g/ha): 5 (weed kill ratio 90% or more, (practically complete withering))
- K: Indian mallow, weedkilling efficacy grade ([2]; treatment dosage 315 g/ha): 5 (weed kill ratio 90% or more, (practically complete withering))
- N: chickweed, weedkilling efficacy grade ([3]; treatment dosage 315 g/ha): 5 (weed kill ratio 90% or more, (practically complete withering))
- g: rapeseed, effect on crop grade ([4]; treatment dosage 315 g/ha): 5 (weed kill ratio 90% or more, (practically complete withering))
- A: barnyard grass, weed kill grade ([5]; treatment dosage 252 g/ha): 5 (weed kill ratio 90% or more, (practically complete withering))
- e: wheat, effect on crop grade ([6]; treatment dosage 315 g/ha): 5 (weed kill ratio 90% or more, (practically complete withering))
- c: corn, effect on crop grade ([7]; treatment dosage 315 g/ha): 4 (weed kill ratio 70% or more, less than 90%)
- F: barnyard grass, weedkilling efficacy grade ([8]; treatment dosage 315 g/ha): 5 (weed kill ratio 90% or more, (practically complete withering))
- I: Italian ryegrass, weedkilling efficacy grade ([9]; treatment dosage 315 g/ha): 5 (weed kill ratio 90% or more, (practically complete withering))
- G: wild oat, weedkilling efficacy grade ([10]; treatment dosage 315 g/ha): 5 (weed kill ratio 90% or more, (practically complete withering))
- A (barnyard grass) weedkilling efficacy grade ([11]; treatment dosage 252 g/ha): 5 (weed kill ratio 90% or more, (practically complete withering))
- O: catchweed, weedkilling efficacy grade ([12]; treatment dosage 315 g/ha): 5 (weed kill ratio 90% or more, (practically complete withering))
- H: black-grass, weedkilling efficacy grade ([13]; treatment dosage 315 g/ha): 5 (weed kill ratio 90% or more, (practically complete withering))
- d: soybean, effect on crop grade ([14]; treatment dosage 315 g/ha): 3 (weed kill ratio 40% or more, less than 70%)
- a: transplanted rice, effect on crop grade ([15]; treatment dosage 252 g/ha): 3 (weed kill ratio 40% or more, less than 70%)
- b: directly sown rice, effect on crop grade ([16]; treatment dosage 315 g/ha): 5 (weed kill ratio 90% or more, (practically complete withering))
- B: bulrush, weed kill grade ([17]; treatment dosage 252 g/ha): 5 (weed kill ratio 90% or more, (practically complete withering))
- f: beet, effect on crop grade ([18]; treatment dosage 315 g/ha): 4 (weed kill ratio 70% or more, less than 90%)
- C (oval-leafed pondweed) weedkilling efficacy grade ([19]; treatment dosage 252 g/ha): 5 (weed kill ratio 90% or more, (practically complete withering))
- D: crabgrass, weedkilling efficacy grade ([20]; treatment dosage 315 g/ha): 5 (weed kill ratio 90% or more, (practically complete withering))
- P: birds-eye speedwell, weedkilling efficacy grade ([21]; treatment dosage 315 g/ha): 5 (weed kill ratio 90% or more, (practically complete withering))
- J: common wind-grass, weedkilling efficacy grade ([22]; treatment dosage 315 g/ha): 5 (weed kill ratio 90% or more, (practically complete withering))
- B (bulrush) weedkilling efficacy grade ([23]; treatment dosage 252 g/ha): 5 (weed kill ratio 90% or more, (practically complete withering))
- E: green foxtail, weedkilling efficacy grade ([24]; treatment dosage 315 g/ha): 5 (weed kill ratio 90% or more, (practically complete withering))
- L: redroot pigweed, weedkilling efficacy grade ([25]; treatment dosage 315 g/ha): 5 (weed kill ratio 90% or more, (practically complete withering))

SMILES: CC(C)(C(=O)Nc1cc(Cl)cc(Oc2ccccc2)n1)N1COCN(c2ccccc2)C1=O [A-2-35]
- C: oval-leafed pondweed, weed kill grade ([1]; treatment dosage 320 g/ha): 5 (weed kill ratio 90% or more, (practically complete withering))
- K: Indian mallow, weedkilling efficacy grade ([2]; treatment dosage 320 g/ha): 0 (weed kill ratio 5% or less (practically no effect))
- N: chickweed, weedkilling efficacy grade ([3]; treatment dosage 320 g/ha): 0 (weed kill ratio 5% or less (practically no effect))
- M: fig-leafed goosefoot, weedkilling efficacy grade [26]: 0 (weed kill ratio 5% or less (practically no effect))
- g: rapeseed, effect on crop grade ([4]; treatment dosage 320 g/ha): 1 (weed kill ratio 5% or more, less than 20%)
- A: barnyard grass, weed kill grade ([5]; treatment dosage 320 g/ha): 5 (weed kill ratio 90% or more, (practically complete withering))
- e: wheat, effect on crop grade ([6]; treatment dosage 320 g/ha): 0 (weed kill ratio 5% or less (practically no effect))
- c: corn, effect on crop grade ([7]; treatment dosage 320 g/ha): 0 (weed kill ratio 5% or less (practically no effect))
- F: barnyard grass, weedkilling efficacy grade ([8]; treatment dosage 320 g/ha): 3 (weed kill ratio 40% or more, less than 70%)
- I: Italian ryegrass, weedkilling efficacy grade ([9]; treatment dosage 320 g/ha): 3 (weed kill ratio 40% or more, less than 70%)
- G: wild oat, weedkilling efficacy grade ([10]; treatment dosage 320 g/ha): 0 (weed kill ratio 5% or less (practically no effect))
- A (barnyard grass) weedkilling efficacy grade ([11]; treatment dosage 320 g/ha): 4 (weed kill ratio 70% or more, less than 90%)
- O: catchweed, weedkilling efficacy grade ([12]; treatment dosage 320 g/ha): 0 (weed kill ratio 5% or less (practically no effect))
- H: black-grass, weedkilling efficacy grade ([13]; treatment dosage 320 g/ha): 3 (weed kill ratio 40% or more, less than 70%)
- d: soybean, effect on crop grade ([14]; treatment dosage 320 g/ha): 0 (weed kill ratio 5% or less (practically no effect))
- a: transplanted rice, effect on crop grade ([15]; treatment dosage 320 g/ha): 1 (weed kill ratio 5% or more, less than 20%)
- b: directly sown rice, effect on crop grade ([16]; treatment dosage 320 g/ha): 0 (weed kill ratio 5% or less (practically no effect))
- B: bulrush, weed kill grade ([17]; treatment dosage 320 g/ha): 5 (weed kill ratio 90% or more, (practically complete withering))
- f: beet, effect on crop grade ([18]; treatment dosage 320 g/ha): 0 (weed kill ratio 5% or less (practically no effect))
- C (oval-leafed pondweed) weedkilling efficacy grade ([19]; treatment dosage 320 g/ha): 4 (weed kill ratio 70% or more, less than 90%)
- D: crabgrass, weedkilling efficacy grade ([20]; treatment dosage 320 g/ha): 4 (weed kill ratio 70% or more, less than 90%)
- J: common wind-grass, weedkilling efficacy grade ([22]; treatment dosage 320 g/ha): 4 (weed kill ratio 70% or more, less than 90%)
- B (bulrush) weedkilling efficacy grade ([23]; treatment dosage 320 g/ha): 4 (weed kill ratio 70% or more, less than 90%)
- E: green foxtail, weedkilling efficacy grade ([24]; treatment dosage 320 g/ha): 3 (weed kill ratio 40% or more, less than 70%)
- L: redroot pigweed, weedkilling efficacy grade ([25]; treatment dosage 320 g/ha): 0 (weed kill ratio 5% or less (practically no effect))

SMILES: CC(C)(C(=O)Nc1cc(OC(F)F)cc(Cl)n1)N1COCN(c2ccccc2)C1=O [A-2-34]
- C: oval-leafed pondweed, weed kill grade ([1]; treatment dosage 320 g/ha): 5 (weed kill ratio 90% or more, (practically complete withering))
- K: Indian mallow, weedkilling efficacy grade ([2]; treatment dosage 320 g/ha): 0 (weed kill ratio 5% or less (practically no effect))
- N: chickweed, weedkilling efficacy grade ([3]; treatment dosage 320 g/ha): 4 (weed kill ratio 70% or more, less than 90%)
- M: fig-leafed goosefoot, weedkilling efficacy grade [26]: 4 (weed kill ratio 70% or more, less than 90%)
- g: rapeseed, effect on crop grade ([4]; treatment dosage 320 g/ha): 1 (weed kill ratio 5% or more, less than 20%)
- A: barnyard grass, weed kill grade ([5]; treatment dosage 320 g/ha): 5 (weed kill ratio 90% or more, (practically complete withering))
- e: wheat, effect on crop grade ([6]; treatment dosage 320 g/ha): 0 (weed kill ratio 5% or less (practically no effect))
- c: corn, effect on crop grade ([7]; treatment dosage 320 g/ha): 0 (weed kill ratio 5% or less (practically no effect))
- F: barnyard grass, weedkilling efficacy grade ([8]; treatment dosage 320 g/ha): 5 (weed kill ratio 90% or more, (practically complete withering))
- I: Italian ryegrass, weedkilling efficacy grade ([9]; treatment dosage 320 g/ha): 5 (weed kill ratio 90% or more, (practically complete withering))
- G: wild oat, weedkilling efficacy grade ([10]; treatment dosage 320 g/ha): 5 (weed kill ratio 90% or more, (practically complete withering))
- A (barnyard grass) weedkilling efficacy grade ([11]; treatment dosage 320 g/ha): 5 (weed kill ratio 90% or more, (practically complete withering))
- H: black-grass, weedkilling efficacy grade ([13]; treatment dosage 320 g/ha): 5 (weed kill ratio 90% or more, (practically complete withering))
- d: soybean, effect on crop grade ([14]; treatment dosage 320 g/ha): 0 (weed kill ratio 5% or less (practically no effect))
- a: transplanted rice, effect on crop grade ([15]; treatment dosage 320 g/ha): 3 (weed kill ratio 40% or more, less than 70%)
- b: directly sown rice, effect on crop grade ([16]; treatment dosage 320 g/ha): 4 (weed kill ratio 70% or more, less than 90%)
- B: bulrush, weed kill grade ([17]; treatment dosage 320 g/ha): 5 (weed kill ratio 90% or more, (practically complete withering))
- f: beet, effect on crop grade ([18]; treatment dosage 320 g/ha): 4 (weed kill ratio 70% or more, less than 90%)
- C (oval-leafed pondweed) weedkilling efficacy grade ([19]; treatment dosage 320 g/ha): 5 (weed kill ratio 90% or more, (practically complete withering))
- D: crabgrass, weedkilling efficacy grade ([20]; treatment dosage 320 g/ha): 5 (weed kill ratio 90% or more, (practically complete withering))
- P: birds-eye speedwell, weedkilling efficacy grade ([21]; treatment dosage 320 g/ha): 4 (weed kill ratio 70% or more, less than 90%)
- J: common wind-grass, weedkilling efficacy grade ([22]; treatment dosage 320 g/ha): 5 (weed kill ratio 90% or more, (practically complete withering))
- B (bulrush) weedkilling efficacy grade ([23]; treatment dosage 320 g/ha): 5 (weed kill ratio 90% or more, (practically complete withering))
- E: green foxtail, weedkilling efficacy grade ([24]; treatment dosage 320 g/ha): 5 (weed kill ratio 90% or more, (practically complete withering))
- L: redroot pigweed, weedkilling efficacy grade ([25]; treatment dosage 320 g/ha): 0 (weed kill ratio 5% or less (practically no effect))

Source: US9738634B2, “Heterocyclic amide compound and herbicide” (SYNGENTA PARTICIPATIONS AG, priority 2013, dated 2017)
